Key:
Japanese bulrush [1] = test: Test Example 1: herbicidal activity, application before weed generation under submerged conditions (Table 16, symbol B); format: in vivo, Japanese bulrush (Schoenoplectus juncoides); conditions: amount of applied herbicide 320 g/ha
In short: (§1)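 Alluvial soil was flooded to 4 cm depth, weed seeds were sown mixed and 2.5-leaf rice seedlings were transplanted. On sowing day, the compound's emulsion, diluted in water to a set dose, was applied to the water surface. Plants grew at 25–30 °C and were scored 0–5 after three weeks.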

oval-leafed pondweed = test: Test Example 1: herbicidal activity, application before weed generation under submerged conditions (Table 16, symbol C); format: in vivo, oval-leafed pondweed (Monochoria vaginalis); conditions: amount of applied herbicide 320 g/ha
In short: as §1

Japanese bulrush [2] = test: Test Example 2: herbicidal activity, application during weed generation under submerged conditions (Table 17, symbol B); format: in vivo, Japanese bulrush (Schoenoplectus juncoides); conditions: AAH 320 g/ha; application during weed generation, submerged conditions
In short: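 Herbicide emulsion, diluted with water to the chosen amount, is applied onto 4 cm floodwater over alluvial soil where the weeds were co-sown and raised at 25–30° C. Application timing: 1–2 leaves. Assessment: three weeks afterwards.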

Chinese sprangletop = test: Test Example 3: herbicidal effect by foliage application, Wagner pot (Table 18, symbol D); format: in vivo, chinese sprangletop (Leptochloa chinensis); conditions: for herbicidal effect on D: Chinese sprangletop: amount of applied herbicide 320 g/ha
In short: (§2)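 Plants were sown in alluvial soil held under 0.1–0.5 cm standing water and grown 14 days in a greenhouse at 25–30 °C. An emulsifiable formulation, water-diluted to the set dose, was then sprayed onto the foliage, and effects were scored three weeks later using previously defined criteria.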

rice flat sedge = test: Test Example 3: herbicidal effect by foliage application, Wagner pot (Table 18, symbol E); format: in vivo, rice flat sedge (Cyperus iria); conditions: for herbicidal effect on E: rice flat sedge: amount of applied herbicide 320 g/ha
In short: as §2

green foxtail = test: Test Example 4: herbicidal effect by soil treatment (Table 19, symbol G); format: in vivo, green foxtail (Setaria viridis); conditions: amount of applied herbicide 320 g/ha
In short: (§3)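 Three weeks of greenhouse growth at 25° C. to 30° C. followed a uniform surface spray of water-diluted emulsion at a predetermined herbicide amount. Seeds had been sown beforehand under about 1.5 cm of sterilized diluvial soil. Grading followed criteria set out in an earlier test.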

wild oat [3] = test: Test Example 4: herbicidal effect by soil treatment (Table 19, symbol I); format: in vivo, wild oat (Avena fatua); conditions: amount of applied herbicide 320 g/ha
In short: as §3

Italian ryegrass = test: Test Example 4: herbicidal effect by soil treatment (Table 19, symbol K); format: in vivo, Italian ryegrass (Lolium multiflorum); conditions: amount of applied herbicide 320 g/ha
In short: as §3

windgrass [4] = test: Test Example 4: herbicidal effect by soil treatment (Table 19, symbol L); format: in vivo, windgrass (Apera spica-venti); conditions: amount of applied herbicide 320 g/ha
In short: as §3

redroot pigweed [5] = test: Test Example 4: herbicidal effect by soil treatment (Table 19, symbol N); format: in vivo, redroot pigweed (Amaranthus retroflexus); conditions: amount of applied herbicide 320 g/ha
In short: as §3

chickweed = test: Test Example 4: herbicidal effect by soil treatment (Table 19, symbol P); format: in vivo, common chickweed (Stellaria media); conditions: amount of applied herbicide 320 g/ha
In short: as §3

southern crabgrass = test: Test Example 5: herbicidal effect by foliage application, plastic box (Table 20, symbol F); format: in vivo, southern crabgrass (Digitaria ciliaris); conditions: foliage application, 320 g/ha, three weeks after application
In short: (§4)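 Plants sown in sterilized diluvial soil and grown 14 days in a greenhouse at 25° C to 30° C, then sprayed on the foliage with the compound's emulsion diluted in water to a predetermined herbicide amount. Injury to weeds and crops scored three weeks after application on a visual rating scale.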

wild oat [6] = test: Test Example 5: herbicidal effect by foliage application, plastic box (Table 20, symbol I); format: in vivo, wild oat (Avena fatua); conditions: foliage application, 320 g/ha, three weeks after application
In short: as §4

windgrass [7] = test: Test Example 5: herbicidal effect by foliage application, plastic box (Table 20, symbol L); format: in vivo, windgrass (Apera spica-venti); conditions: foliage application, 320 g/ha, three weeks after application
In short: as §4

redroot pigweed [8] = test: Test Example 5: herbicidal effect by foliage application, plastic box (Table 20, symbol N); format: in vivo, redroot pigweed (Amaranthus retroflexus); conditions: foliage application, 320 g/ha, three weeks after application
In short: as §4

lambsquarters = test: Test Example 5: herbicidal effect by foliage application, plastic box (Table 20, symbol O); format: in vivo, lambsquarters (Chenopodium album); conditions: foliage application, 320 g/ha, three weeks after application
In short: as §4

persian speedwell = test: Test Example 5: herbicidal effect by foliage application, plastic box (Table 20, symbol R); format: in vivo, Persian speedwell (Veronica persica); conditions: foliage application, 320 g/ha, three weeks after application
In short: as §4

Row | Compound | Herbicidal effect, B: Japanese bulrush (Japanese bulrush [1]) | Herbicidal effect, C: oval-leafed pondweed (oval-leafed pondweed) | herbicidal effect rating, B: Japanese bulrush (Japanese bulrush [2]) | herbicidal effect on D: Chinese sprangletop (Chinese sprangletop) | herbicidal effect on E: rice flat sedge (rice flat sedge) | F: southern crabgrass, herbicidal effect grade (southern crabgrass) | I: wild oat, herbicidal effect grade (wild oat [6]) | L: windgrass, herbicidal effect grade (windgrass [7]) | N: redroot pigweed, herbicidal effect grade (redroot pigweed [8]) | O: lambsquarters, herbicidal effect grade (lambsquarters) | R: persian speedwell, herbicidal effect grade (persian speedwell) | G: green foxtail, herbicidal effect grade (green foxtail) | I: wild oat, herbicidal effect grade (wild oat [3]) | K: Italian ryegrass, herbicidal effect grade (Italian ryegrass) | L: windgrass, herbicidal effect grade (windgrass [4]) | N: redroot pigweed, herbicidal effect grade (redroot pigweed [5]) | P: chickweed, herbicidal effect grade (chickweed) | further results
1 | COc1ccccc1-c1sc2cc(F)ccc2c1-c1c(OC(=O)c2ccco2)c(C)nn(C)c1=O [3-023] | 3 (Herbicidal rate of 40% or more and less than 70%) | 4 (Herbicidal rate of 70% or more and less than 90%) | 2 (Herbicidal rate of 20% or more and less than 40%) | 3 (Herbicidal rate of 40% or more and less than 70%) | 5 (Herbicidal rate of 90% or more (almost completely withered)) | 3 (Herbicidal rate of 40% or more and less than 70%) | 4 (Herbicidal rate of 70% or more and less than 90%) | 5 (Herbicidal rate of 90% or more (almost completely withered)) | 5 (Herbicidal rate of 90% or more (almost completely withered)) | 3 (Herbicidal rate of 40% or more and less than 70%) | 3 (Herbicidal rate of 40% or more and less than 70%) |  |  |  |  |  |  | herbicidal effect, G: green foxtail (green foxtail): 4 (Herbicidal rate of 70% or more and less than 90%); herbicidal effect, I: wild oat (wild oat [3]): 0 (Herbicidal rate of 5% or less (almost no effect)); herbicidal effect, K: Italian ryegrass (Italian ryegrass): 5 (Herbicidal rate of 90% or more (almost completely withered)); herbicidal effect, L: windgrass (windgrass [4]): 3 (Herbicidal rate of 40% or more and less than 70%); herbicidal effect, N: redroot pigweed (redroot pigweed [5]): 5 (Herbicidal rate of 90% or more (almost completely withered)); herbicidal effect, P: chickweed (chickweed): 4 (Herbicidal rate of 70% or more and less than 90%)
2 | COc1ccccc1-c1sc2cc(F)ccc2c1-c1c(OS(=O)(=O)c2ccc(C)cc2)c(C)nn(C)c1=O [3-027] | 3 (Herbicidal rate of 40% or more and less than 70%) | 5 (Herbicidal rate of 90% or more (almost completely withered)) | 2 (Herbicidal rate of 20% or more and less than 40%) | 3 (Herbicidal rate of 40% or more and less than 70%) | 5 (Herbicidal rate of 90% or more (almost completely withered)) | 3 (Herbicidal rate of 40% or more and less than 70%) | 3 (Herbicidal rate of 40% or more and less than 70%) | 5 (Herbicidal rate of 90% or more (almost completely withered)) | 5 (Herbicidal rate of 90% or more (almost completely withered)) | 3 (Herbicidal rate of 40% or more and less than 70%) | 0 (Herbicidal rate of 5% or less (almost no effect)) | 0 (Herbicidal rate of 5% or less (almost no effect)) | 0 (Herbicidal rate of 5% or less (almost no effect)) | 0 (Herbicidal rate of 5% or less (almost no effect)) | 0 (Herbicidal rate of 5% or less (almost no effect)) | 0 (Herbicidal rate of 5% or less (almost no effect)) | 0 (Herbicidal rate of 5% or less (almost no effect)) | 
3 | COc1ccccc1-c1sc2cc(F)ccc2c1-c1c(OS(=O)(=O)N(C)C)c(C)nn(C)c1=O [3-028] | 0 (Herbicidal rate of 5% or less (almost no effect)) | 0 (Herbicidal rate of 5% or less (almost no effect)) | 0 (Herbicidal rate of 5% or less (almost no effect)) | 3 (Herbicidal rate of 40% or more and less than 70%) | 5 (Herbicidal rate of 90% or more (almost completely withered)) | 3 (Herbicidal rate of 40% or more and less than 70%) | 0 (Herbicidal rate of 5% or less (almost no effect)) | 5 (Herbicidal rate of 90% or more (almost completely withered)) | 5 (Herbicidal rate of 90% or more (almost completely withered)) | 2 (Herbicidal rate of 20% or more and less than 40%) | 0 (Herbicidal rate of 5% or less (almost no effect)) | 0 (Herbicidal rate of 5% or less (almost no effect)) | 0 (Herbicidal rate of 5% or less (almost no effect)) | 0 (Herbicidal rate of 5% or less (almost no effect)) | 3 (Herbicidal rate of 40% or more and less than 70%) | 0 (Herbicidal rate of 5% or less (almost no effect)) | 0 (Herbicidal rate of 5% or less (almost no effect)) | 
4 | CCCC(=O)Oc1c(C)nn(C)c(=O)c1-c1c(-c2ccc(Cl)cc2)sc2cc(Cl)ccc12 [3-034] | 3 (Herbicidal rate of 40% or more and less than 70%) | 3 (Herbicidal rate of 40% or more and less than 70%) | 0 (Herbicidal rate of 5% or less (almost no effect)) |  |  | 3 (Herbicidal rate of 40% or more and less than 70%) | 3 (Herbicidal rate of 40% or more and less than 70%) | 5 (Herbicidal rate of 90% or more (almost completely withered)) | 4 (Herbicidal rate of 70% or more and less than 90%) | 4 (Herbicidal rate of 70% or more and less than 90%) | 5 (Herbicidal rate of 90% or more (almost completely withered)) | 0 (Herbicidal rate of 5% or less (almost no effect)) | 0 (Herbicidal rate of 5% or less (almost no effect)) | 1 (Herbicidal rate of 5% or more and less than 20%) | 0 (Herbicidal rate of 5% or less (almost no effect)) | 3 (Herbicidal rate of 40% or more and less than 70%) | 3 (Herbicidal rate of 40% or more and less than 70%) | herbicidal effect on Chinese sprangletop (D) (Chinese sprangletop; 320 g/ha): 4 (Herbicidal rate of 70% or more and less than 90%); herbicidal effect on rice flat sedge (E) (rice flat sedge; 320 g/ha): 5 (Herbicidal rate of 90% or more (almost completely withered))

From patent US20230085307A1, “PYRIDAZINONE COMPOUND AND HERBICIDE” (NISSAN CHEMICAL CORPORATION, priority 2019, published 2023)
